# Measured values published in ChEMBL document CHEMBL2440027, “Further SAR studies on bicyclic basic merbarone analogues as potent antiproliferative agents” (Bioorg Med Chem, 2013).
# Experiments:
# Type in all cases: functional
# SF-268 [1] = test: Growth inhibition of human SF268 cells assessed as cell growth at 10 uM after 48 hrs by sulforhodamine B assay relative to control; conditions: SF-268, 48 h, read-out: Activity
# MOLT-4 = test: Growth inhibition of human MOLT4 cells after 48 hrs by sulforhodamine B assay; conditions: MOLT-4, 48 h
# SK-OV-3 = test: Growth inhibition of human SKOV3 cells after 48 hrs by sulforhodamine B assay; conditions: SK-OV-3, 48 h; for CC50: read-out: LC50 (the source's name)
# T47D = test: Growth inhibition of human T47D cells after 48 hrs by sulforhodamine B assay
# [2] = Growth inhibition of human Hs 578T cells assessed as cell growth at 10 uM after 48 hrs by sulforhodamine B assay relative to control; conditions: read-out: Activity
# [3] = Growth inhibition of human Hs 578T cells after 48 hrs by sulforhodamine B assay; conditions: for CC50: read-out: LC50 (the source's name)
# SK-MEL-28 [4] = test: Growth inhibition of human SK-MEL-28 cells after 48 hrs by sulforhodamine B assay; conditions: SK-MEL-28, 48 h; for CC50: read-out: LC50 (the source's name)
# ACHN = test: Growth inhibition of human ACHN cells assessed as cell growth at 10 uM after 48 hrs by sulforhodamine B assay relative to control; conditions: read-out: Activity
# NCI-H522 [5] = test: Growth inhibition of human NCI-H522 cells assessed as cell growth at 10 uM after 48 hrs by sulforhodamine B assay relative to control; conditions: NCI-H522, 48 h, read-out: Activity
# [6] = Growth inhibition of human EKVX cells assessed as cell growth at 10 uM after 48 hrs by sulforhodamine B assay relative to control; conditions: read-out: Activity
# RXF 393 = test: Growth inhibition of human RXF393 cells after 48 hrs by sulforhodamine B assay; conditions: RXF 393, 48 h; for CC50: read-out: LC50 (the source's name)
# M14 = test: Growth inhibition of human M14 cells after 48 hrs by sulforhodamine B assay; conditions: M14, 48 h; for CC50: read-out: LC50 (the source's name)
# SF-539 [7] = test: Growth inhibition of human SF539 cells assessed as cell growth at 10 uM after 48 hrs by sulforhodamine B assay relative to control; conditions: SF-539, 48 h, read-out: Activity
# CCRF-CEM = test: Growth inhibition of human CCRF-CEM cells after 48 hrs by sulforhodamine B assay
# [8] = Growth inhibition of human NCI-ADR-RES cells assessed as cell growth at 10 uM after 48 hrs by sulforhodamine B assay relative to control; conditions: read-out: Activity
# SK-MEL-28 [9] = test: Growth inhibition of human SK-MEL-28 cells assessed as cell growth at 10 uM after 48 hrs by sulforhodamine B assay relative to control; conditions: SK-MEL-28, 48 h, read-out: Activity
# SF-268 [10] = test: Growth inhibition of human SF268 cells after 48 hrs by sulforhodamine B assay; conditions: SF-268, 48 h
# KM12 [11] = test: Growth inhibition of human KM12 cells after 48 hrs by sulforhodamine B assay; conditions: KM12, 48 h
# OVCAR-4 = test: Growth inhibition of human OVCAR4 cells after 48 hrs by sulforhodamine B assay; conditions: OVCAR-4, 48 h
# NCI-H522 [12] = test: Growth inhibition of human NCI-H522 cells after 48 hrs by sulforhodamine B assay; conditions: NCI-H522, 48 h; for CC50: read-out: LC50 (the source's name)
# SF-295 = test: Growth inhibition of human SF295 cells assessed as cell growth at 10 uM after 48 hrs by sulforhodamine B assay relative to control; conditions: SF-295, 48 h, read-out: Activity
# HCT-116 = test: Growth inhibition of human HCT116 cells after 48 hrs by sulforhodamine B assay; conditions: HCT-116, 48 h
# MDA-MB-231 = test: Growth inhibition of human MDA-MB-231 cells after 48 hrs by sulforhodamine B assay; conditions: MDA-MB-231, 48 h; for CC50: read-out: LC50 (the source's name)
# SNB-19 = test: Growth inhibition of human SNB19 cells after 48 hrs by sulforhodamine B assay; conditions: SNB-19, 48 h; for CC50: read-out: LC50 (the source's name)
# MDA-MB-468 = test: Growth inhibition of human MDA-MB-468 cells assessed as cell growth at 10 uM after 48 hrs by sulforhodamine B assay relative to control; conditions: MDA-MB-468, 48 h, read-out: Activity
# U-251 = test: Growth inhibition of human U251 cells after 48 hrs by sulforhodamine B assay; conditions: U-251, 48 h; for CC50: read-out: LC50 (the source's name)
# PC-3 = test: Growth inhibition of human PC3 cells assessed as cell growth at 10 uM after 48 hrs by sulforhodamine B assay relative to control; conditions: PC-3, 48 h, read-out: Activity
# MDA-MB-435 = test: Growth inhibition of human MDA-MB-435 cells after 48 hrs by sulforhodamine B assay; conditions: MDA-MB-435, 48 h; for CC50: read-out: LC50 (the source's name)
# UO-31 = test: Growth inhibition of human UO31 cells after 48 hrs by sulforhodamine B assay; conditions: UO-31, 48 h
# NCI-H322M = test: Growth inhibition of human NCI-H322M cells after 48 hrs by sulforhodamine B assay; conditions: for CC50: read-out: LC50 (the source's name)
# RPMI-8226 = test: Growth inhibition of human RPMI8226 cells assessed as cell growth at 10 uM after 48 hrs by sulforhodamine B assay relative to control; conditions: RPMI-8226, 48 h, read-out: Activity
# UACC-62 = test: Growth inhibition of human UACC62 cells assessed as cell growth at 10 uM after 48 hrs by sulforhodamine B assay relative to control; conditions: UACC-62, 48 h, read-out: Activity
# KM12 [13] = test: Growth inhibition of human KM12 cells assessed as cell growth at 10 uM after 48 hrs by sulforhodamine B assay relative to control; conditions: KM12, 48 h, read-out: Activity
# SF-539 [14] = test: Growth inhibition of human SF539 cells after 48 hrs by sulforhodamine B assay; conditions: SF-539, 48 h; for CC50: read-out: LC50 (the source's name)
# [15] = read-out: LC50 (the source's name)
smiles,measurement,setting,value
CN(C)CCNc1nc2c(c(=N)n1-c1ccccc1)c(=S)n(-c1ccccc1)c(=S)n2-c1ccccc1,growth at 10 µM,SF-268 [1],24%
same,GI50,MOLT-4,1800 nM
same,LC50,MOLT-4,17200 nM
same,TGI,MOLT-4,4700 nM
same,GI50,SK-OV-3,10300 nM
same,TGI,SK-OV-3,24100 nM
same,CC50,SK-OV-3,56700 nM
same,GI50,T47D,2100 nM
same,LC50,T47D,30500 nM
same,TGI,T47D,5400 nM
same,growth at 10 µM,[2],12.3%
same,GI50,[3],2300 nM
same,TGI,[3],7700 nM
same,CC50,[3],40000 nM
same,GI50,SK-MEL-28 [4],600 nM
same,TGI,SK-MEL-28 [4],2100 nM
same,CC50,SK-MEL-28 [4],5800 nM
same,growth at 10 µM,ACHN,28.3%
same,growth at 10 µM,NCI-H522 [5],3.16%
same,growth at 10 µM,[6],39.8%
same,GI50,RXF 393,1200 nM
same,TGI,RXF 393,3100 nM
same,CC50,RXF 393,8100 nM
same,GI50,M14,1800 nM
same,TGI,M14,4300 nM
same,CC50,M14,89100 nM
same,growth at 10 µM,SF-539 [7],-86.9%
same,GI50,CCRF-CEM,1400 nM
same,LC50,CCRF-CEM,9200 nM
same,TGI,CCRF-CEM,3600 nM
same,growth at 10 µM,[8],58.8%
same,growth at 10 µM,SK-MEL-28 [9],-100%
same,GI50,SF-268 [10],4100 nM
same,LC50,SF-268 [10],45600 nM
same,TGI,SF-268 [10],15300 nM
same,GI50,KM12 [11],4300 nM
same,LC50,KM12 [11],49900 nM
same,TGI,KM12 [11],14600 nM
same,GI50,OVCAR-4,3100 nM
same,TGI,OVCAR-4,10800 nM
same,GI50,NCI-H522 [12],2100 nM
same,TGI,NCI-H522 [12],5400 nM
same,CC50,NCI-H522 [12],27600 nM
same,growth at 10 µM,SF-295,-61.5%
same,GI50,HCT-116,2700 nM
same,TGI,HCT-116,16000 nM
same,GI50,MDA-MB-231,1800 nM
same,TGI,MDA-MB-231,5600 nM
same,CC50,MDA-MB-231,24700 nM
same,GI50,SNB-19,4900 nM
same,TGI,SNB-19,19000 nM
same,CC50,SNB-19,50000 nM
same,growth at 10 µM,MDA-MB-468,-34.6%
same,GI50,U-251,1500 nM
same,TGI,U-251,3400 nM
same,CC50,U-251,7800 nM
same,growth at 10 µM,PC-3,31%
same,GI50,MDA-MB-435,1900 nM
same,TGI,MDA-MB-435,4700 nM
same,CC50,MDA-MB-435,22100 nM
same,GI50,UO-31,1600 nM
same,LC50,UO-31,9600 nM
same,TGI,UO-31,3900 nM
same,GI50,NCI-H322M,6200 nM
same,TGI,NCI-H322M,20700 nM
same,CC50,NCI-H322M,53800 nM
same,growth at 10 µM,RPMI-8226,-4.62%
same,growth at 10 µM,UACC-62,-90.3%
same,growth at 10 µM,KM12 [13],0.2%
same,GI50,SF-539 [14],1800 nM
same,TGI,SF-539 [14],3500 nM
same,CC50,SF-539 [14],7000 nM
CCCCN(CCCC)CCCNc1nc2c(c(=N)n1-c1ccccc1)c(=S)n(-c1ccccc1)c(=S)n2-c1ccccc1,growth at 10 µM,SF-268 [1],-94%
same,GI50,MOLT-4,300 nM
same,GI50,SK-OV-3,1500 nM
same,TGI,SK-OV-3,2900 nM
same,CC50,SK-OV-3,5800 nM
same,GI50,T47D,200 nM
same,LC50,T47D,8300 nM
same,TGI,T47D,500 nM
same,growth at 10 µM,[2],-64.6%
same,GI50,[3],500 nM
same,TGI,[3],1900 nM
same,CC50,[3],5500 nM
same,GI50,SK-MEL-28 [4],200 nM
same,TGI,SK-MEL-28 [4],300 nM
same,CC50,SK-MEL-28 [4],700 nM
same,growth at 10 µM,ACHN,-95.8%
same,growth at 10 µM,NCI-H522 [5],-54.8%
same,growth at 10 µM,[6],-74.2%
same,GI50,RXF 393,200 nM
same,TGI,RXF 393,500 nM
same,CC50,RXF 393,36800 nM
same,GI50,M14,200 nM
same,TGI,M14,400 nM
same,CC50,M14,800 nM
same,growth at 10 µM,SF-539 [7],-97.7%
same,GI50,CCRF-CEM,100 nM
same,LC50,CCRF-CEM,600 nM
same,TGI,CCRF-CEM,300 nM
same,growth at 10 µM,[8],-71.1%
same,growth at 10 µM,SK-MEL-28 [9],-100%
same,GI50,SF-268 [10],1000 nM
same,LC50,SF-268 [10],4700 nM
same,TGI,SF-268 [10],2200 nM
same,GI50,KM12 [11],400 nM
same,LC50,KM12 [11],3800 nM
same,TGI,KM12 [11],1500 nM
same,GI50,OVCAR-4,600 nM
same,TGI,OVCAR-4,1900 nM
same,CC50,OVCAR-4; [15],4400 nM
same,GI50,NCI-H522 [12],200 nM
same,TGI,NCI-H522 [12],1300 nM
same,CC50,NCI-H522 [12],5100 nM
same,growth at 10 µM,SF-295,-100%
same,GI50,HCT-116,300 nM
same,TGI,HCT-116,1100 nM
same,CC50,HCT-116; [15],3400 nM
same,GI50,MDA-MB-231,300 nM
same,TGI,MDA-MB-231,900 nM
same,CC50,MDA-MB-231,3000 nM
same,GI50,SNB-19,1200 nM
same,TGI,SNB-19,2700 nM
same,CC50,SNB-19,5800 nM
same,growth at 10 µM,MDA-MB-468,-89.9%
same,GI50,U-251,300 nM
same,TGI,U-251,1200 nM
same,CC50,U-251,3500 nM
same,growth at 10 µM,PC-3,-70.8%
same,GI50,MDA-MB-435,200 nM
same,TGI,MDA-MB-435,500 nM
same,CC50,MDA-MB-435,1500 nM
same,GI50,UO-31,200 nM
same,LC50,UO-31,1100 nM
same,TGI,UO-31,500 nM
same,GI50,NCI-H322M,1400 nM
same,TGI,NCI-H322M,3200 nM
same,CC50,NCI-H322M,7400 nM
same,growth at 10 µM,RPMI-8226,-53.4%
same,growth at 10 µM,UACC-62,-99.4%
same,growth at 10 µM,KM12 [13],-100%
same,GI50,SF-539 [14],1200 nM
same,TGI,SF-539 [14],2700 nM
same,CC50,SF-539 [14],5700 nM
